Bridge positions count the residues as written; N and C are the ends. Square brackets hold non-standard residues; d marks the D form. Peptide text beside a SMILES is read from it. * marks the point of attachment. Asp(3S-OH) = N[C@H](C(=O)O)[C@H](O)C(=O)O; Thr(4-Cl) = N[C@H](C(=O)O)[C@H](O)CCl; X1 = CCCCCCCCC[C@@H](O)CC(=O)*; dDab = NCC[C@@H](N)C(=O)O; Dab = NCC[C@H](N)C(=O)O; Dhb = C/C=C(\N)C(=O)O
Test system: Pichia ciferrii strains
Test: Minimal inhibitory concentration of SyringomycinE on YEPD agar plates
Type: cell-based
Conditions: 10 μg/ml in YEPD selective plates
Experimental: In order to isolate high sphinganine producing Pichia ciferrii strains the following procedure was followed. First, the natural sensitivity of Pichia ciferrii strains for the toxic compound SyringomycinE, produced by […] syringae (Gross D C, 1985, Regulation of syringomycin synthesis in Pseudomonas syringae pv. syringae and defined conditions for its production. J Appl Bacteriol. 58:167-174), was determined by adding different concentrations of SyringomycinE to agar plates. A stock solution of 3.5 mg SyringomycinE (obtained from J. Takemoto, Utah State University) was prepared by dissolving it in 1.0 ml 0.001 N HCl. The pH was kept below 7 for stability and stored at −20° C. The minimal inhibitory concentration (=MIC-value) for Pichia ciferrii strains was determined by using YEPD plates (per liter: Yeast Extract, 10 g; Pepton, 20 g; Glucose, 20 g; Agar, 20 g) containing various concentrations between 0.1 and 20 μg/ml syringomycinE. On each plate with the different concentrations of syringomycinE 100 μl of a freshly grown culture (OD600 nm=0.4) was plated and incubated at 30° C. for 5 days.
Depending on the strain no colonies appeared on plates with 2 to 10 μg/ml of SyringomycinE, meaning that the MIC value lies between 2 and 10 μg/ml. […]

## C/C=C1\NC(=O)[C@H](Cc2ccccc2)NC(=O)[C@H](CCCN=C(N)N)NC(=O)[C@@H](CCN)NC(=O)[C@H](CCN)NC(=O)[C@@H](CO)NC(=O)[C@@H](NC(=O)C[C@H](O)CCCCCCCCC)COC(=O)[C@H]([C@H](O)CCl)NC(=O)[C@H]([C@H](O)C(=O)O)NC1=O [SyringomycinE] (X1-S[dS][Dab][dDab]RF[Dhb][Asp(3S-OH)][Thr(4-Cl)]; ester 1-C)
  effect on standard P. ciferrii strains: lethal

From patent publication US9234222B2, “Microbial strains producing sphingoid bases or derivatives thereof” (EVONIK DEGUSSA GMBH, priority 2004, dated 2016)
